{
  "source": "ChEMBL document CHEMBL2007661",
  "about": "“Compounds: GSK PKIS; Assays: UNC Frye lab” (2012)",
  "key": {"[1]": {"target": "T1, Inhibitor of nuclear factor kappa-B kinase subunit epsilon (Homo sapiens) (UniProt Q14164)", "T1 sequence (whole entry)": "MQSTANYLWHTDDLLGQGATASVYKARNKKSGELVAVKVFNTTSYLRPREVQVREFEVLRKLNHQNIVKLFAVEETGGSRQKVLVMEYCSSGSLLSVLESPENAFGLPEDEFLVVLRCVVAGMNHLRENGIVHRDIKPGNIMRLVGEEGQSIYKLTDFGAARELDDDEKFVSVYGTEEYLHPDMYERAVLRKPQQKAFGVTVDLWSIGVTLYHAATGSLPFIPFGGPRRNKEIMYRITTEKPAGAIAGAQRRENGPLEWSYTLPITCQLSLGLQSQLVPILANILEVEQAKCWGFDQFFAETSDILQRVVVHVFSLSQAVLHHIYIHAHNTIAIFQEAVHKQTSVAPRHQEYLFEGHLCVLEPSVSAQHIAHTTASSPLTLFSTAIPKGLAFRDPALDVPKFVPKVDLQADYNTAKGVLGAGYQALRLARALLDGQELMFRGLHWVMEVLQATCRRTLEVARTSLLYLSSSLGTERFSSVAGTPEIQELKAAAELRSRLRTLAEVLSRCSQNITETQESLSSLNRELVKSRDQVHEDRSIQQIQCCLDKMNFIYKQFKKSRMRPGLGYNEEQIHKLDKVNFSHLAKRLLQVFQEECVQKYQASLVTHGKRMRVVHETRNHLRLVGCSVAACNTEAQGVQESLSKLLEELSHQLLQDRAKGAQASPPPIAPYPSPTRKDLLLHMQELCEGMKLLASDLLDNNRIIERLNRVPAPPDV", "conditions": "at 1 µM"}, "[2]": {"target": "T2, Tyrosine-protein kinase Mer (Homo sapiens) (UniProt Q12866)", "T2 sequence (whole entry)": "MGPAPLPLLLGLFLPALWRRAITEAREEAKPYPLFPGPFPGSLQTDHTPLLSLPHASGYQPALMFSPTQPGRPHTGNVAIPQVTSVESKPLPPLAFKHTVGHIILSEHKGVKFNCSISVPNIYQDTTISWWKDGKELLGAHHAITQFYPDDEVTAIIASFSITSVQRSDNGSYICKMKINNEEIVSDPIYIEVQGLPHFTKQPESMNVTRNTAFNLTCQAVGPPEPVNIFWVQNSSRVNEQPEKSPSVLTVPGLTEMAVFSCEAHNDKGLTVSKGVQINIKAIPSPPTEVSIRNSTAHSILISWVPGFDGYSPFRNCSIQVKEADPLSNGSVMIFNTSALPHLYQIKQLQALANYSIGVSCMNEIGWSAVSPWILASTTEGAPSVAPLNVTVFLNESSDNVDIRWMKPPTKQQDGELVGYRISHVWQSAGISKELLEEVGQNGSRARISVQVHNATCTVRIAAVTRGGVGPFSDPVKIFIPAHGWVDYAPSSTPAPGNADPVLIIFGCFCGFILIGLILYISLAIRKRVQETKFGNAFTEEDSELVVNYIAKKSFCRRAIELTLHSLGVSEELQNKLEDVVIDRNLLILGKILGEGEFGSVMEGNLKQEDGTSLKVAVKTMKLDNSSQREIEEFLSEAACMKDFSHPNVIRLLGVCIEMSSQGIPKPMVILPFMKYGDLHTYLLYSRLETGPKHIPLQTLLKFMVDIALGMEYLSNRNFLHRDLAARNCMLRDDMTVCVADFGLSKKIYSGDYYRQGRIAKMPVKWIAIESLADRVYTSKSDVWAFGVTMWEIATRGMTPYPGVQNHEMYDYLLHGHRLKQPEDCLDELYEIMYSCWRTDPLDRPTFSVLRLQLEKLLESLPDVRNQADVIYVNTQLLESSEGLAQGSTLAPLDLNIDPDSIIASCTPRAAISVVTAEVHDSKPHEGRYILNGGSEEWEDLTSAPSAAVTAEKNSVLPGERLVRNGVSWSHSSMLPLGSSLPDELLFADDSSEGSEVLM", "conditions": "at 10 µM"}},
  "note": "Where “and” joins values, the source holds several entries; their conditions need not be identical. Equal entries are not always repeated.",
  "data": [
    {"smiles": "CCn1c(-c2nonc2N)nc2c(C#CCN)ncc(OCCCN)c21", "values": [
      {"measurement": "inhibition", "setting": "[1]", "result": "8% and 6%"},
      {"measurement": "inhibition", "setting": "[2]", "result": -4, "unit": "%"}
    ]},
    {"smiles": "Cc1ccc2c(c1)/C(=N/Nc1ccc(S(N)(=O)=O)cc1)C(=O)N2", "values": [
      {"measurement": "inhibition", "setting": "[1]", "result": "-1% and 1%"},
      {"measurement": "inhibition", "setting": "[2]", "result": 66, "unit": "%"}
    ]},
    {"smiles": "COC(=O)c1sc(-n2cnc3cc(OC)c(OC)cc32)cc1OCc1ccccc1C(F)(F)F", "values": [
      {"measurement": "inhibition", "setting": "[1]", "result": "13% and 11%"},
      {"measurement": "inhibition", "setting": "[2]", "result": -1, "unit": "%"}
    ]},
    {"smiles": "COc1cc(/C=N/Nc2ncnc3[nH]ncc23)ccc1O", "values": [
      {"measurement": "inhibition", "setting": "[1]", "result": 20, "unit": "%"},
      {"measurement": "inhibition", "setting": "[2]", "result": 6, "unit": "%"}
    ]},
    {"smiles": "c1ccc(-c2n[nH]cc2-c2ccnc(-c3ccc(OCCn4ccnc4)cc3)c2)nc1", "values": [
      {"measurement": "inhibition", "setting": "[1]", "result": "-2% and 0%"},
      {"measurement": "inhibition", "setting": "[2]", "result": 0, "unit": "%"}
    ]},
    {"smiles": "C#Cc1cccc(Nc2ncnc3ccc(OCCCCNCCS(C)(=O)=O)cc23)c1", "values": [
      {"measurement": "inhibition", "setting": "[1]", "result": "-2% and 0%"},
      {"measurement": "inhibition", "setting": "[2]", "result": 6, "unit": "%"}
    ]},
    {"smiles": "Cc1ccc(C(=O)NC(C)C)cc1-c1ccc(C(=O)NCC2CC2)cc1", "values": [
      {"measurement": "inhibition", "setting": "[1]", "result": "0% and -2%"},
      {"measurement": "inhibition", "setting": "[2]", "result": -2, "unit": "%"}
    ]},
    {"smiles": "COc1cc2ncn(-c3cc(OCc4ccccc4Cl)c(C(N)=O)s3)c2cc1OC", "values": [
      {"measurement": "inhibition", "setting": "[1]", "result": "8% and 7%"},
      {"measurement": "inhibition", "setting": "[2]", "result": 83, "unit": "%"}
    ]},
    {"smiles": "Fc1cccc(COc2ccc(Nc3ncnc4sc(-c5ccco5)cc34)cc2Cl)c1", "values": [
      {"measurement": "inhibition", "setting": "[1]", "result": "0% and 2%"},
      {"measurement": "inhibition", "setting": "[2]", "result": 78, "unit": "%"}
    ]},
    {"smiles": "CCc1nccc2c1nc(-c1nonc1N)n2CC", "values": [
      {"measurement": "inhibition", "setting": "[1]", "result": "-3% and 0%"},
      {"measurement": "inhibition", "setting": "[2]", "result": -3, "unit": "%"}
    ]},
    {"smiles": "Cn1c(-c2nonc2N)nc2cnccc21", "values": [
      {"measurement": "inhibition", "setting": "[1]", "result": "2% and 3%"},
      {"measurement": "inhibition", "setting": "[2]", "result": -9, "unit": "%"}
    ]},
    {"smiles": "COc1cc(N2CCN(C(C)C)CC2)ccc1Nc1nc(Nc2ccc(F)cc2C(N)=O)c2cc[nH]c2n1", "values": [
      {"measurement": "inhibition", "setting": "[1]", "result": "6% and 4%"},
      {"measurement": "inhibition", "setting": "[2]", "result": 4, "unit": "%"}
    ]},
    {"smiles": "O=C(O[C@H]1CN[C@H](C#Cc2cc3ncnc(Nc4ccc(Cc5ccccc5)cc4)c3s2)C1)N1CCOCC1", "values": [
      {"measurement": "inhibition", "setting": "[1]", "result": "4% and 2%"},
      {"measurement": "inhibition", "setting": "[2]", "result": 5, "unit": "%"}
    ]},
    {"smiles": "COC(=O)Nc1nc2cc(Oc3ccc(NC(=O)Nc4cccc(Br)c4)cc3)ccc2[nH]1", "values": [
      {"measurement": "inhibition", "setting": "[1]", "result": "-3% and 0%"},
      {"measurement": "inhibition", "setting": "[2]", "result": 4, "unit": "%"}
    ]},
    {"smiles": "NS(=O)(=O)c1ccc(N/N=C2\\C(=O)Nc3ccc(C(=O)NCCc4c[nH]cn4)cc32)cc1", "values": [
      {"measurement": "inhibition", "setting": "[1]", "result": "17% and 15%"},
      {"measurement": "inhibition", "setting": "[2]", "result": -1, "unit": "%"}
    ]},
    {"smiles": "O=C(O[C@H]1CN[C@H](C#Cc2cc3ncnc(Nc4ccc(OCc5cccc(F)c5)c(Cl)c4)c3s2)C1)N1CCOCC1", "values": [
      {"measurement": "inhibition", "setting": "[1]", "result": "-1% and -3%"},
      {"measurement": "inhibition", "setting": "[2]", "result": -3, "unit": "%"}
    ]},
    {"smiles": "COc1cc(C=NNc2ncnc3c2cnn3Cc2ccccc2)ccc1O", "values": [
      {"measurement": "inhibition", "setting": "[1]", "result": "1% and -1%"},
      {"measurement": "inhibition", "setting": "[2]", "result": 5, "unit": "%"}
    ]},
    {"smiles": "CCn1c(-c2nonc2N)nc2c(C#CC(C)(C)O)nc(OC[C@@H](N)c3ccccc3)cc21", "values": [
      {"measurement": "inhibition", "setting": "[1]", "result": "39% and 40%"},
      {"measurement": "inhibition", "setting": "[2]", "result": -1, "unit": "%"}
    ]},
    {"smiles": "COc1c(C(N)=O)cc(-c2ccc(Cl)cc2)cc1-c1ccc(S(N)(=O)=O)cc1", "values": [
      {"measurement": "inhibition", "setting": "[1]", "result": "-1% and 0%"},
      {"measurement": "inhibition", "setting": "[2]", "result": -6, "unit": "%"}
    ]},
    {"smiles": "COc1ccc(-c2nn3ncccc3c2-c2ccnc(Nc3cccc(C(F)(F)F)c3)n2)cc1", "values": [
      {"measurement": "inhibition", "setting": "[1]", "result": "-1% and 0%"},
      {"measurement": "inhibition", "setting": "[2]", "result": 6, "unit": "%"}
    ]},
    {"smiles": "c1ccc(COc2ccc(Nc3ncnc4ccc(-c5ccco5)cc34)cc2)cc1", "values": [
      {"measurement": "inhibition", "setting": "[1]", "result": "-3% and -1%"},
      {"measurement": "inhibition", "setting": "[2]", "result": 99, "unit": "%"}
    ]}
  ]
}
